Results taken from patent publication US9974778B2, “Substituted pyridinones as MGAT2 inhibitors” (BRISTOL-MYERS SQUIBB COMPANY, priority 2014, dated 2018).

Biological target: T1, Human MGAT-2 (Homo sapiens, UniProt Q3SYC2)
T1 construct: made in house; host or cells: Sf9 cells (membrane preparation)
Test: MGAT LCMS Assay
Format: biochemical
Conditions: human MGAT2 membranes expressed in Sf9 cells; 100 μM 2-oleoylglycerol, 15 μM oleoyl-coenzyme A; read-out: h-MGAT LCMS IC50
Description: Assay plates were run through a fully automated robotics system and shaken for 5 seconds every minute for a total 10 minutes. The reactions were then quenched with 120 μL of ice cold methanol containing 1 μg/mL 1,2-distearoyl-rac-glycerol as the internal standard. Plates were shaken for 2 minutes and spun down to remove protein precipitation. After the spin, samples were transferred to LC/MS compatible PCR plates. For LC/MS analysis, a ThermoFisher Surveyor pump, utilizing a Waters […]® C8, 50×2.1 mm column, was used for the chromatography of enzyme products. The buffer system consists of 0.1% formic acid in water with a mobile phase consisting 0.1% formic acid in methanol. […] The first 0.5 minutes of each injection was diverted to waste to eliminate the presence of Phosphate buffer in the enzymatic reaction. The column was run at 0.6 mL/min and a temperature of 65° C. Mass spectrometry analysis of the samples was performed on a ThermoFisher Quantum Triple quad utilizing APCI (+) as the mode of ionization. […] The ratio of Diolein to internal standard (Peak Area Ratio) is utilized to calculate IC50 values.

T1 sequence (Q3SYC2 whole entry): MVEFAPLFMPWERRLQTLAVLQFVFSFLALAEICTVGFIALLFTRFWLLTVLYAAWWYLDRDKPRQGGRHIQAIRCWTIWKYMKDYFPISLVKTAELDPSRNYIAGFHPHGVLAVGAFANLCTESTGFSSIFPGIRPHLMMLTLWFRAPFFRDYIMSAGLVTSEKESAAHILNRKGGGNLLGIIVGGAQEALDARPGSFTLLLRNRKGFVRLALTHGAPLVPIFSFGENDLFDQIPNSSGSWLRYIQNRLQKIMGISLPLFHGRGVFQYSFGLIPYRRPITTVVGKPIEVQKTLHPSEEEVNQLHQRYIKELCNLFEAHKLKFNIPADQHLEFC

Compound | IC50 [nM]
Cc1ccc(-c2cc(-c3ccc(C4=CCCCCC4)cc3)[nH]c(=O)c2-c2nnn[nH]2)cc1 [Example 69, 6-(4-(Cyclohept-1-en-1-yl)phenyl)-3-(1H-tetrazol-5-yl)-4-(p-tolyl)pyridin-2(1H)-one] | 220
Cc1ccc(-c2cc(-c3ccc(OCCCCCC(F)(F)F)c(C)c3)[nH]c(=O)c2-c2nnn[nH]2)cc1 [Example 70, 6-(3-Methyl-4-((6,6,6-trifluorohexyl)oxy)phenyl)-3-(1H-tetrazol-5-yl)-4-(p-tolyl)pyridin-2(1H)-one] | 97
CS(=O)(=O)NC(=O)c1c(-c2ccc(OC(F)F)cc2)cc(-c2ccc(OCCCCCC(F)(F)F)cc2)[nH]c1=O [Example 71] | 15
CC(C)n1ccc(-c2cc(-c3ccc(CCCCC(F)(F)F)cc3)[nH]c(=O)c2-c2nn[nH]n2)n1 [Example 74, 4-(1-Isopropyl-1H-pyrazol-3-yl)-3-(2H-tetrazol-5-yl)-6-(4-(5.5,5-trifluoropentyl)phenyl)pyridin-2(1H)-one] | 255
O=c1[nH]c(-c2ccc(OCCCC(F)(F)F)cc2)cc(-c2ccn(C3CC3)n2)c1-c1nn[nH]n1 [Example 76, 4-(1-Cyclopropyl-1H-pyrazol-3-yl)-3-(2H-tetrazol-5-yl)-6-(4-(4,4,4-trifluorobutoxy)phenyl)pyridin-2(1H)-one] | 87
O=C(NS(=O)(=O)C1CC1)c1c(-c2ccn(C3CCC3)n2)cc(-c2ccc(OCCCC(F)(F)F)cc2F)[nH]c1=O [Example 77, 4-(1-Cyclobutyl-1H-pyrazol-3-yl)-N-(cyclopropylsulfonyl)-6-(2-fluoro-4-(4,4,4-trifluorobutoxy)phenyl)-2-oxo-1,2-dihydropyridine-3-carboxamide] | 143
Cc1ccc(-c2cc(-c3ccc(OCCCC(F)(F)F)cc3)[nH]c(=O)c2C(=O)NC2CCC2)cc1 [Example 79, N-Cyclobutyl-2-oxo-4-(p-tolyl)-6-(4-(4,4,4-trifluorobutoxy)phenyl)-1,2-dihydropyridine-3-carboxamide] | 198
CCC/C=C/c1ccc(-c2cc(-c3ccc(N(C)C)cc3)c(-c3nn[nH]n3)c(=O)[nH]2)cc1 [Example 80, (E)-4-(4-(Dimethylamino)phenyl)-6-(4-(pent-1-en-1-yl)phenyl)-3-(2H-tetrazol-5-yl)pyridin-2(1H)-one] | 168
Cc1ccc(-c2cc(-c3ccc(Cc4ccccc4)cc3)[nH]c(=O)c2-c2nn[nH]n2)cc1 [Example 81, 6-(4-Benzylphenyl)-3-(2H-tetrazol-5-yl)-4-(p-tolyl)pyridin-2(1H)-one] | 256
CN(C)c1ncc(-c2cc(C3CCCCC3)[nH]c(=O)c2C(=O)Nc2ccc(OC(F)(F)F)cc2)s1 [Example 82, 6-Cyclohexyl-4-(2-(dimethylamino)thiazol-5-yl)-2-oxo-N-(4-(trifluoromethoxy)phenyl)-1,2-dihydropyridinc-3-carboxamide] | 1
O=c1[nH]c(-c2ccc(OCCCC(F)(F)F)cc2F)cc(-c2ccc3c(c2)CCCC3)c1-c1nn[nH]n1 [Example 89, 6-(2-Fluoro-4-(4,4,4-trifluorobutoxy)phenyl)-4-(5,6,7,8-tetrahydronaphthalen-2-yl)-3-(2H-tetrazol-5-yl)pyridin-2(1H)-one] | 24
O=C(Nc1ccc(OC(F)(F)F)cc1)c1c(-c2cnn(C3CC3)c2)cc(-c2ccc(OCCCC(F)(F)F)cc2)[nH]c1=O [Example 95, 4-(1-Cyclopropyl-1H-pyrazol-4-yl)-2-oxo-6-(4-(4,4,4-trifluorobutoxy)phenyl)-N-(4-(trifluoromethoxy)phenyl)-1,2-dihydropyridine-3-carboxamide] | 17
CS(=O)(=O)NC(=O)c1c(-c2ccn(CC3CC3)n2)cc(-c2ccc(OCCCC(F)(F)F)cc2)[nH]c1=O [Example 98, 4-(1-(Cyclopropylmethyl)-1H-pyrazol-3-yl)-N-(methylsulfonyl)-2-oxo-6-(4-(4,4,4-trifluorobutoxy)phenyl)-1,2-dihydropyridine-3-carboxamide] | 332
CS(=O)(=O)NC(=O)c1c(-c2ccn(CC3CC3)n2)c(F)c(-c2ccc(OCCCC(F)(F)F)cc2)[nH]c1=O [Example 109, 4-(1-(Cyclopropylmethyl)-1H-pyrazol-3-yl)-5-fluoro-N-(methylsulfonyl)-2-oxo-6-(4-(4,4,4-trifluorobutoxy)phenyl)-1,2-dihydropyridine-3-carboxamide] | 130
Cc1ccc(-c2cc(-c3ccc(OCCCC(F)(F)F)cc3C(F)(F)F)[nH]c(=O)c2C(=O)Nc2ccc(OC(F)(F)F)cc2)cc1 [Example 111, 2-Oxo-4-(p-tolyl)-6-(4-(4,4,4-trifluorobutoxy)-2-(trifluoromethyl)phenyl)-N-(4-(trifluorormethoxy)phenyl)-1,2-dihydropyridine-3-carboxamide] | 2
O=c1[nH]c(-c2ccc(OCCCC(F)(F)F)cc2F)cc(-c2ccc(OC(F)F)cc2)c1-c1nn[nH]n1 [Example 113, 4-(4-(Difluoromethoxy)phenyl)-6-(2-fluoro-4-(4,4,4-trifluorobutoxy)phenyl)-3-(2H-tetrazol-5-yl)pyridin-2(1H)-one] | 7
CCOc1ccc(NC(=O)c2c(-c3ccc(C)cc3)cc(-c3ccc(OCCCC(F)(F)F)cc3F)[nH]c2=O)cc1 [Example 114, N-(4-Ethoxyphenyl)-6-(2-fluoro-4-(4,4,4-trifluorobutoxy)phenyl)-2-oxo-4-(p-tolyl)-1,2-dihydropyridine-3-carboxamide] | 14
CCc1ccc(-c2cc(-c3ccc(OCCCC(F)(F)F)cc3F)[nH]c(=O)c2C(=O)Nc2ccc(OC(F)(F)F)cc2)s1 [Example 116, 4-(5-Ethylthiophen-2-yl)-6-(2-fluoro-4-(4,4,4-trifluorobutoxy)phenyl)-2-oxo-N-(4-(trifluoromethoxy)phenyl)-1,2-dihydropyridine-3-carboxamide] | 17

Now from value to compound:

IC50 [nM] | Compound
1 | CCc1ccc(-c2cc(-c3ccc(OCCCCCC(F)(F)F)cc3)[nH]c(=O)c2C(=O)NS(=O)(=O)C2CC2)s1 [Example 84, N-(Cyclopropylsulfonyl)-4-(5-ethylthiophen-2-yl)-2-oxo-6-(4-((6,6,6-trifluorohexyl)oxy)phenyl)-1,2-dihydropyridine-3-carboxamide]
7 | O=C(Nc1ccc(OC(F)(F)F)cc1)c1c(-c2ccc(Cl)s2)cc(C2CCCCC2)[nH]c1=O [Example 85, 4-(5-Chlorothiophen-2-yl)-6-cyclohexyl-2-oxo-N-(4-(trifluoromethoxy)phenyl)-1,2-dihydropyridine-3-carboxamide]
355 | O=C(Nc1ccc(OC(F)(F)F)cc1)c1c(-c2cnn(C3CC3)c2)cc(C2CCCCC2)[nH]c1=O [Example 94]
1 | O=c1[nH]c(-c2ccc(OCCCCCC(F)(F)F)cc2F)cc(-c2ccc(C3CC3)s2)c1-c1nn[nH]n1 [Example 96, 4-(5-Cyclopropylthiophen-2-yl)-6-(2-fluoro-4-((6,6,6-trifluorohexyl)oxy)phenyl)-3-(2H-tetrazol-5-yl)pyridin-2(1H)-one]
153 | O=c1[nH]c(-c2ccc(OCCCC(F)(F)F)cc2)cc(-c2ccn(CC3CC3)n2)c1-c1nnn[nH]1 [Example 97]
7 | CCc1ccc(-c2cc(-c3ccc(OCCCCCC(F)(F)F)cc3)[nH]c(=O)c2C(=O)NS(C)(=O)=O)s1 [Example 101, 4-(5-Ethylthiophen-2-yl)-N-(methylsulfonyl)-2-oxo-6-(4-((6,6,6-trifluorohexyl)oxy)phenyl)-1,2-dihydropyridine-3-carboxamide]
26 | O=c1[nH]c(-c2ccc(CCCCC(F)(F)F)cc2F)cc(-c2ccn(C3CCC3)n2)c1-c1nnn[nH]1 [Example 103]
84 | O=c1[nH]c(-c2ccc(OCCCCCC(F)(F)F)cc2F)cc(-c2ccn(C3CC3)n2)c1-c1nn[nH]n1 [Example 104, 4-(1-Cyclopropyl-1H-pyrazol-3-yl)-6-(2-fluoro-4-((6,6,6-trifluorohexyl)oxy)phenyl)-3-(2H-tetrazol-5-yl)pyridin-2(1H)-one]
23 | CS(=O)(=O)NC(=O)c1c(-c2ccn(CC3CC3)n2)cc(-c2ccc(OCCCCCC(F)(F)F)cc2)[nH]c1=O [Example 105, 4-(1-(Cyclopropylmethyl)-1H-pyrazol-3-yl)-N-(methylsulfonyl)-2-oxo-6-(4-((6,6,6-trifluorohexyl)oxy)phenyl)-1,2-dihydropyridine-3-carboxamide]
99 | O=c1[nH]c(-c2ccc(OCCCCCC(F)(F)F)cc2)cc(-c2ccn(C3CC3)n2)c1-c1nnn[nH]1 [Example 107]
14 | O=c1[nH]c(-c2ccc(OCCCCCC(F)(F)F)cc2)cc(-c2ccc(OC(F)F)cc2)c1-c1nnn[nH]1 [Example 108, 4-(4-(Difluoromethoxy)phenyl)-3-(1H-tetrazol-5-yl)-6-(4-((6,6-trifluorohexyl)oxy)phenyl)pyridin-2(1H)-one]
43 | O=c1[nH]c(-c2ccc(OCCCCCC(F)(F)F)cc2)cc(-c2ccn(CC3CC3)n2)c1-c1nnn[nH]1 [Example 110, 4-(1-(Cyclopropylmethyl)-1H-pyrazol-3-yl)-3-(1H-tetrazol-5-yl)-6-(4-((6,6,6-trifluorohexyl)oxy)phenyl)pyridin-2(1H)-one]
29 | Cc1ccc(-c2c(F)c(-c3ccc(OCCCCCC(F)(F)F)cc3)[nH]c(=O)c2C(=O)NS(C)(=O)=O)cc1 [Example 117, 5-Fluoro-N-(methylsulfonyl)-2-oxo-4-(p-tolyl)-6-(4-((6,6,6-trifluorohexyl)oxy)phenyl)-1,2-dihydropyridine-3-carboxamide]
